Like-named read-outs stand apart in the source and are kept apart here.
Assays:
[1] = tested on: MOG35-55-induced experimental autoimmune encephalomyelitis (EAE); test: In vivo pharmacodynamic research on MOG35-55-induced experimental autoimmune encephalomyelitis (EAE) in mice; conditions: G4, 75 mg/kg p.o. b.i.d
Method: The day of immunization was recorded as day 0, and the subsequent days were marked sequentially. Mice were anesthetized with isoflurane, and 100 μl of the emulsion was administered via subcutaneous injection at three sites (the middle part between shoulder and back, and two sides of the tail that were close to the groin), namely, 33 μl of the emulsion for each site. 0 hour and 48 hours after the injection of the emulsion, 200 ng (i.e. 200 μl) of the PTX solution was intraperitoneal injected. Mice in the normal group were not required to be immunized.
After the immunization on day 0, the immunized mice were randomly divided into 3 groups with 10 mice in each group according to the body weights except for the mice in the normal group, the details were shown in Table 1. FTY720 served as a positive drug, and a dose of […] was an effective dose commonly used in the EAE model.
The first group was normal mice without any treatment; vehicle was administered to the second group; FTY720 was administered to the third group at a dose of 0.5 mg/kg once a day; and the compound of Example 1 was administered to the fourth group at a dose of 75 mg/kg twice a day. The administration lasted for 25 days in total. The volume of intragastric administration was 10 ml/kg.
The day when animals were immunized was day 0. Animal body weights were recorded three times a week from day 0 to day 10, and the body weights and clinical scores of the animals were closely observed and recorded daily from day 11.
The experimental data was expressed as mean±standard error of mean (Mean±SEM).
The area under the curve of clinical scores over time (i.e. “AUC of clinical scores” or “area under the curve of clinical scores”) was calculated by analyzing the curve of clinical scores for each animal in each group, and the inhibition rates of the remaining groups (G1, G3, and G4) relative to G2 (solvent control group) were calculated by the mean AUC of clinical scores among groups.

[2] = Pharmacokinetic evaluation in mice after single IV and PO administration; type: in vivo; parameters: AUC(0-t) / AUC(0-inf): concentration or dose not given beside the values; conditions: Balb/c mice, plasma; for MRT inf: read-out: MRT0-inf; for MRT last: read-out: MRT0-last
Method: Balb/c mice (female, 15 to 30 g, 7- to 9-week old, Shanghai Lingchang) were used to test in vivo pharmacokinetics of compounds. The experimental method was as follows.
The pharmacokinetic characteristics of the compounds were tested by standard protocols after the compounds were administered to rodents by intravenous injection and oral administration. In the experiment, candidate compounds were formulated into clear solutions and administered to mice by a single intravenous injection and a single oral administration. The vehicle for intravenous injection (IV) was a mixed solvent of 5% of DMSO and 95% of 10% Cremophor EL, and the vehicle for oral administration (PO) was a mixed solvent of 1% tween 80, 9% PEG400 and 90% water. Whole blood samples within 48 hours were collected, and centrifuged at 3000 g at 4° C. for 15 minutes. The supernatant was separated to obtain the plasma sample, to which an acetonitrile solution containing an internal standard was added to precipitate the proteins, and the volume of the acetonitrile solution was 20 times that of the plasma sample. The supernatant was obtained by centrifugation, an equal volume of water was added thereto, and the mixture was centrifuged again to get the supernatant for sample injection. Plasma concentrations were quantitatively analyzed by an LC-MS/MS analytical method, and pharmacokinetic parameters, such as peak concentration, peak time, clearance rate, half-life, area under the concentration-time curve, and bioavailability, were calculated.
Of these, “10% Cremophor EL” referred to a deionized aqueous solution of Cremophor EL with a volume concentration of 10%. For example, taking the formulation of a 100 ml solution as an example, 10 ml Cremophor EL was taken and deionized water was added thereto, the mixture was well stirred, and then deionized water was added until the total volume was 100 ml. “Mixed solvent of 5% of DMSO and 95% of 10% Cremophor EL” referred to a mixed solvent comprised of DMSO and 10% Cremophor EL, in which […], and 10% Cremophor EL accounted for 95% of the volume of the mixed solvent. “Mixed solvent of 1% tween 80, 9% PEG400 and 90% water” meant that the volumes of tween 80, PEG400 and water accounted for 1%, 9% and 90% of the volume of the mixed solvent, respectively.

## CCS(=O)(=O)c1ccc(CNC(=O)c2cc3c(s2)C(C(C)C)N(C[C@H]2CC[C@H](C(F)(F)F)CC2)C3)nc1 (single isomer, unassigned) [Example 1]
[1]; 25 days, FIG. 1
  clinical scores of EAE mice: significantly reduced
[1]; 25 days, p<0.0001, FIG. 2
  inhibition rate of AUC of clinical scores relative to solvent control group: 93.2%
[1]; at day 19, stable till the end of the experiment, FIG. 3
  morbidity of EAE: 20%
[1]; from the beginning to end, FIG. 4
  body weights compared among groups: the highest
[1]; significantly different from solvent control group, FIG. 4
  body weight changes: kept increasing
[2]; IV
  AUCExtra: 6.28%
  AUMCExtra: 27.8%
  Tlast: 24.0 h
[2]; PO
  AUCExtra: 12.1%
  AUMCExtra: 41.3%
  Tlast: 24.0 h
[2]; female, mouse, IV
  AUC(0-inf): 3.92 µM·h
  AUC(0-t): 3.67 µM·h
  C0: 955 nM
  clearance: 7.62 mL/min/kg
  half-life: 6.84 h
  MRT inf: 7.66 h
  MRT last: 5.91 h
[2]; female, mouse, IV, read-out: Vdss
  Vd: 3.5 L/kg
[2]; female, mouse, PO
  AUC(0-inf): 35.1 µM·h
  AUC(0-t): 30.9 µM·h
  Cmax: 3520 nM
  Tmax: 1 h
  bioavailability: 89.7%
  half-life: 8.7 h
  MRT inf: 10.8 h
  MRT last: 7.19 h

Reference: US11466024B2, “Bicylic compound acting as an inhibitor” (CHIA TAI TIANQING PHARMACEUTICAL GROUP CO., LTD., priority 2017, dated 2022)
